The values that follow come from patent US12018280B2, “Method for freezing aggregates of pluripotent stem cell-derived cardiomyocytes” (KYOTO UNIVERSITY, priority 2016, dated 2024).

The test system of data set [1] is aggregate of GCaMP-cardiomyocytes derived from human iPS cells. As to the kind of experiment: GCaMP fluorescence wave (intracellular calcium) drug response of cardiomyocyte aggregates after freeze-thaw. Format: cell-based. To be noted: for change of PtP (beat interval): 300 nM isoproterenol, 1 μM propranol; for change of TtP, CAD50, CAD70 and CAD90: 300 nM E4031, 1 μM astemizole, 1 μM nifekalant, 10 μM chromanole 293b, 30 μM mexiletine, 50 nM nifedipine. The source says:
A gene encoding GCaMP3, which is a calcium sensitive GFP that emits GFP fluorescence when bound to intracellular calcium, was introduced into a human iPS cell line (253G1) or a monkey iPS cell line (HT4M2) by AAVS1 region-specific gene transfer mediated by CRISPR. From the human GCaMP3-iPS cells, cardiomyocytes were induced in the same manner as in Section 1 to prepare an aggregate of cardiomyocytes that emitted GFP fluorescence in response to the change in intracellular calcium concentration during the beating. Also, from the monkey GCaMP-iPS cells, cardiomyocytes were induced using cytokines as described previously (Nat Biotechnol. 2007 September; 25(9): 1015-24. Epub 2007 Aug. 26) to prepare an aggregate of cardiomyocytes that emitted GFP fluorescence in response to the change in intracellular calcium concentration. Specifically, the monkey GCaMP-iPS cells were cultured for 24 hours with RPMI-B27 medium (Invitrogen) supplemented with human recombinant activin A (R&D Systems) (100 ng/ml), and then for four days with RPMI-B27 medium supplemented with human recombinant BMP4 (R&D Systems) (10 ng/ml). After the medium was replaced with RPMI-B27 medium without these cytokines, the cells were cultured for 21 days. The GCaMP-cardiomyocytes were dispersed into single cells with a trypsin/collagenase solution, and seeded on Sumilon PrimeSurface 96-well V-bottom plates at 1×10^5 cells/well to form uniform aggregates (700 to 1000 μm in diameter). The aggregates were used to analyze the change in intracellular calcium concentration wave, which synchronized the beating of cardiomyocytes.
derived from human iPS cells seven days after thawing to compare parameters of GCaMP fluorescence wave (change in intracellular calcium ion concentration) before and 10 minutes after the E4031 addition. Analyzed were time from the rise to the peak of fluorescence wave (TtP), and time from the rise to the peak of fluorescence wave and then to the decrease to 50% of the peak value (CaD50), to 70% of the peak value (CaD70), or to 90% of the peak value (CaD90) (FIG. 5-A).
E4031 was added to an aggregate of GCaMP-cardiomyocytes derived from human iPS cells seven days after thawing at 0, 0.3, 3, 30, or 300 nM to analyze the rate of change with E4031.
(Calcium assays in cells follow changes in intracellular calcium, usually with a dye or a luminescent sensor.)

The subject of data set [2] is cardiomyocytes induced from pluripotent stem cells. To be noted: cardiomyocytes induced by the method described in WO 2015/182765; cited from earlier work.
For data set [3], the system named is aggregate of GCaMP-cardiomyocytes derived from human iPS cells. Kind of data set: Cardiotoxicity of anthracycline in cardiomyocyte aggregates after freeze-thaw (GCaMP fluorescence). In kind it is cell-based. As to the method: To detect cardiotoxicity of anthracycline anticancer agents, doxorubicin (10 μM) or daunorubicin (20 μM), was added for 24 hours to an aggregate of GCaMP-cardiomyocytes derived from human iPS cells seven days after thawing. The intracellular calcium wave was plotted with GCaMP fluorescence for an aggregate of cardiomyocytes without any agent (control) (FIGS. 8-A, 8-B), three days after the addition of doxorubicin (FIG. 8-C), or three days after the addition of daunorubicin (FIG. 8-D).
The change in parameters of GCaMP fluorescence wave was analyzed with the addition of doxorubicin (10 μM) or daunorubicin (20 μM) (FIGS. 9-A, 9-B).

The mark [4] stands for this setting: 50 μM ryanodine, seven days after thawing.
Where [5] appears, read: doxorubicin 10 μM or daunorubicin 20 μM.

Turning to `CC(C)NCC(O)c1ccc(O)c(O)c1` (centres unmarked) [isoproterenol], the “change of PtP (beat interval)” value in data set [1] (setting [4]) was “decreased PtP”. `CCS(=O)(=O)N(C)[C@H]1c2cc(C#N)ccc2OC(C)(C)[C@@H]1O` [chromanole 293b]: in data set [1] (seven days after thawing), the “change of TtP, CAD50, CAD70 and CAD90” value was “extended”. In addition, the “effect on action potential” value in data set [2] was “prolongation of action potential”. ryanodine: in data set [1] (setting [4]), the “change of PtP (beat interval)” value is on record as “increased PtP” and the “peak value of GCaMP fluorescence (PeakValue, intracellular calcium increase)” value was “decreased”. With `COc1ccc(CCN2CCC(Nc3nc4ccccc4n3Cc3ccc(F)cc3)CC2)cc1` [astemizole], the “change of TtP, CAD50, CAD70 and CAD90” value in data set [1] (seven days after thawing) is “extended”.

On to `CC(C)NCC(O)COc1cccc2ccccc12` (centres unmarked) [propranol], for which the “change of PtP (beat interval)” value in data set [1] (setting [4]) was “increased PtP”.

In the case of `Cc1cccc(C)c1OCC(C)N` (centres unmarked) [mexiletine], the “change of TtP, CAD50, CAD70 and CAD90” value in data set [1] (seven days after thawing) is given as “extended”.

Take `Cn1c(NCCN(CCO)CCCc2ccc([N+](=O)[O-])cc2)cc(=O)n(C)c1=O` [nifekalant]: the “change of TtP, CAD50, CAD70 and CAD90” value in data set [1] (seven days after thawing) is on record as “extended”.

`COc1cccc2c1C(=O)c1c(O)c3c(c(O)c1C2=O)C[C@@](O)(C(C)=O)C[C@@H]3O[C@H]1C[C@H](N)[C@H](O)[C@H](C)O1` [daunorubicin]: in data set [3] (setting [5]), the “amplitude of GCaMP fluorescence wave” value is listed as “tended to decrease significantly”; the “change of PtP” value is given as “significantly decreased”; the “change of TtP and CAD” value is “not significantly changed”. Besides, the “intracellular calcium wave findings (cardiotoxicity)” value in data set [3] (doxorubicin 10 μM or daunorubicin 20 μM added for 24 hours, three days after the addition) was “short PtP, tachycardia, variable heartbeat interval, and arrhythmia”. As for `Cc1cccc(CCN2CCC(C(=O)c3ccc(NS(C)(=O)=O)cc3)CC2)n1` [E4031], the “change of TtP, CAD50, CAD70 and CAD90” value in data set [1] (seven days after thawing) is listed as “extended”. Also, the “extension of all GCaMP fluorescence wave parameters (TtP, CaD50, CaD70, CaD90)” value in data set [1] (300 nM, 10 minutes after addition vs before, aggregate seven days after thawing) is “around 40%”. Further, the “concentration at or above which TtP, CAD50, CAD70 and CAD90 were extended in a concentration-dependent manner” value in data set [1] (tested at 0, 0.3, 3, 30, 300 nM, seven days after thawing) is on record as not below 3 nM. The “effect on action potential” value in data set [2] is on record as “prolongation of action potential”.
